Key:
[1] = test system: HCT116; assay: MTT cytotoxicity assay, HCT116; type: cell-based; conditions: Homo sapiens, HCT-116, 72 h, MTT; for cytotoxicity at 50 µM: read-out: % Cytotoxicity (50 µM) HCT116; for IC50: 0.05–50 µM
Method: (§1) Cytotoxicity assays were performed by using the MTT reduction method as described previously. Briefly, cancer cell lines were plated in flat-bottom 96-well plates at a cell concentration of 5 × 10^3 cells/well for the fastest growing lines, such as HEK293 and HT29 cells and 1 × 10^4 cells/well for more slowly growing lines, such as HCT116, H1975, BxPC-3, AsPC-1, B16-F10 and DAOY. Then, cells were incubated with the synthesised compounds at different concentrations (from 0.05 to 50 µM) in 200 µL with 10% FBS in RPMI 1640 or DMEM F12 culture medium at 37 °C for 72 h. Later, 10 µL of MTT were added at a final concentration of 0.5 mg/mL, incubated at 37 °C for 4 h, and then solubilised with 10% sodium dodecyl sulphate (SDS) in 0.1 mM HCl and incubated overnight at 37 °C. Formazan formation was measured at 570 nm in a multiwell plate reader (Cytation 5, Biotek Instruments, Winooski, VT, USA). Three independent biological replicates were performed.

[2] = test system: Daoy; assay: MTT cytotoxicity assay, Daoy; type: cell-based, human; conditions: Homo sapiens, Daoy, 72 h, MTT; for cytotoxicity at 50 µM: read-out: % Cytotoxicity (50 µM) DAOY;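 on all read-outs here: viability read as formazan absorbance at 570 nm after MTT reduction, three independent biological replicates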
[3] = test system: H1975; assay: MTT cytotoxicity assay, H1975; type: cell-based; conditions: Homo sapiens, NCI-H1975, 72 h, MTT; for cytotoxicity at 50 µM: read-out: % Cytotoxicity (50 µM) H1975; for IC50: 0.05–50 µM
Method: as §1

[4] = test system: BxPC-3; assay: MTT cytotoxicity assay, BxPC-3; type: cell-based; conditions: Homo sapiens, 72 h, 0.05–50 µM
Method: as §1

[5] = MTT cytotoxicity assay, HEK293 control cells; type: cell-based, human; conditions: human, HEK293 cells; 50 µM, 72 h, MTT;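 further: Read-out is formazan absorbance at 570 nm from MTT reduction in 96-well plates, with three independent biological replicates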
[6] = test system: HEK293; assay: MTT cytotoxicity assay, HEK293 control cells; type: cell-based, human; conditions: for IC50: Homo sapiens, HEK293, MTT, 72 h, non-cancer cell line;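 on all read-outs here: Read-out is formazan absorbance at 570 nm from MTT reduction in 96-well plates, with three independent biological replicates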
[7] = test system: HEK293; assay: CFSE proliferation assay, HEK293; type: cell-based, human; conditions: 19 µM, 48 h
Method: HT29 and HEK293 cells were resuspended at 1 × 10^6/mL in DMEM F12 without FBS. A 5 mM CFSE stock solution carboxyfluorescein diacetate succinimidyl ester (Cell Proliferation Kit, Life Technologies, Carlsbad, CA, USA) in DMSO was added to a final concentration of 5 µM and incubated at 37 °C for 15 min protected from light. At the end of the incubation period, the cells were immediately washed twice in cold PBS 1X/no-FBS. Cells were washed three times in PBS 1×/10%-FBS and resuspended in the same medium and plated in 12-well plates at a density of 1 × 10^5 cells/200 µL medium and grown overnight at 37 °C in a 5% CO2 humidified atmosphere. […] The cells were collected and then analysed by flow cytometry (BD; FACScanto II, Mountain View, CA, USA) and data were processed using FCS Express v6 software. Two independent biological replicates were performed.

[8] = test system: HT29; assay: Cell cycle analysis (PI, flow cytometry), HT29; type: cell-based, human; conditions: 19 µM, 24 h, compared to the control
Method: HT29 and HEK293 cells were plated in 6-well plates at a density of 2.0 × 10^5 cells/1.5 mL/well and grown overnight at 37 °C in a 5% CO2 humidified atmosphere. […] Aliquots of cells were collected, pelleted, washed, and fixed with ethanol (70% v/v) for at least 30 min at 4 °C. Cells were resuspended twice in PBS and, after centrifugation and elimination of the supernatant, they were finally resuspended in a PBS solution containing propidium iodide (PI; […], Invitrogen), RNase A ([…], Invitrogen). After a final incubation for 1 h in the dark at 37 °C, the PI signal was measured using a FACS Canto II Flow-cytometer (BD; Mountain View, CA) with a 488 nm excitation laser, captured and FACS DIVA was used as the acquisition software. The percentage of cells in each phase was analysed using the FCS Express v6 software. Two independent biological replicates were performed.

[9] = test system: HT29 cells; assay: Annexin V-FITC/PI assay, HT29; type: cell-based, human; conditions: for early apoptosis (II): 19 µM, 3 or 12 h, untreated control 2.7%
Method: HT29 cells were seeded in a 12-well plate (5 × 10^5 cells per well) and incubated overnight in DMEM F12. […] The cells were collected and then processed for apoptosis analysis using the Annexin-V/PI Alexa Fluor 488 Apoptosis Kit (Invitrogen, Waltham, MA, USA) according to the manufacturer’s instructions. Finally, cells were analysed by flow cytometry (BD; FACS Canto II, Mountain View, CA, USA) and data were processed using the FCS Express v6 software. Three independent replicates were performed.

[10] = test system: HCT116; assay: Colony formation assay, HCT116; type: cell-based, human; conditions: 5 µM, 14 d
Method: HT29, HCT116, H1975 and HEK293 cells were seeded in a 6-well plate (1 × 10^4 cells per well) and incubated overnight in DMEM F12 supplemented with 10% FBS. […] After 72 h, the medium was replaced by fresh medium without stimuli, and cells were incubated for an additional 14 d to permit colony formation. The cells were fixed during 30 min with PFA 4% (v/v), washed and stained for 30 min at RT with a 5% solution of violet crystal for final colony counting. Three independent replicates were performed.

[11] = test system: GLI1-responsive luciferase reporter in HCT116 cells; assay: HH-dependent GLI luciferase reporter assay in HCT116; type: cell-based, human; conditions: 24 h, 4s 1.5 µM, vismodegib 1 µM; for activation induced by the agonist purmorphamine: purmorphamine 20 µM
Method: Luciferase and renilla activity were assayed with a dual-luciferase assay system according to the manufacturer’s instructions (Cignal Reporter Gli-luciferase, ADN, Qiagen, Hilden, Germany). Results were expressed as luciferase/renilla ratios and represent the mean of triplicate values in one assay.
Supplemental Figure S2: Luciferase reporter activity dependent on the Hh pathway.
This assay was performed in HCT116 cells stably transformed with a Gli responsive luciferase reporter gene and a renilla luciferase gene (normalization control), treated for 24 […]
renilla activity were assayed with the dual-luciferase assay system Cignal Reporter Gli - luciferase (ADN, Qiagen). Results are expressed as luciferase/renilla activity ratios and represent the mean of triplicate values from one assay. […]
(1 picture or pasted object on this page, not shown here)

| Structure (SMILES) | cytotoxicity at 50 µM [1] | IC50 [1] | IC50 ([2]; 0.05–50 µM) | cytotoxicity at 50 µM [2] | cytotoxicity at 50 µM [3] | IC50 [3] | IC50 [4] | cytotoxicity at 72 h, 50 µM [5] | IC50 [6] | HEK293 cell proliferation (CFSE) [7] | increase of the G1/G0 phase [8] | early apoptosis (II) [9] | colony formation HCT116 [10] | basal GLI1 transcription activity [11] | activation induced by the agonist purmorphamine [11] | concentration at which effects on HEK293 cells were observed [6] | decrease in S phase [8] | viability at 19 µM ([9]; Homo sapiens, HT-29, 3 or 12 h, control around 95.7%, read-out: cell viability (Annexin V-FITC/PI)) |
| --- | --- | --- | --- | --- | --- | --- | --- | --- | --- | --- | --- | --- | --- | --- | --- | --- | --- | --- |
| CS(=O)(=O)c1ccc(C(=O)Nc2ccc(Cl)c(-c3ccccn3)c2)c(Cl)c1 [Vismodegib, reference compound] | < 50% | > 50000 nM | > 50 µM | < 50% | 53 ± 1.2% | > 50000 nM | > 50 µM | < 50% | > 50 µM | less effect on reducing proliferation than 4s | 10% | no statistically significant differences | less effective than 4s | did not affect basal GLI1 transcription activity | effectively reduced the activation |  |  |  |
| CCCCCCn1cnc2c(-c3ccc(OC(F)(F)F)cc3)nc(N3CCN(c4ccncc4)CC3)nc21 [Compound 4s, 9-Hexyl-2-(4-(pyridin-4-yl)piperazin-1-yl)-6-(4-(trifluoromethoxy)phenyl)-9H-purine] | 99 ± 0.4% | 1300 ± 400 nM |  | 98 ± 0.3% | 99 ± 0.2% | 1500 ± 300 nM | 4.1 ± 0.9 µM | < 50% | > 50 µM | no effect | 24% | 64.6% | totally inhibited the formation of colonies | did not affect basal GLI1 transcription activity | effectively reduced the activation | above 50 µM | 12% | ~33.8% |

Source: article PMC8395040 (International Journal of Molecular Sciences, 2021)
